According to PubChem BioAssay (NCI):
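Step 1: Grow cells in 96-well plates. Step 2: Expose to compound for 48 hours at 5 concentrations. Step 3: Interpolate endpoints linearly; if unreached, use highest concentration. GI50 = concentration required for 50% inhibition of growth. Definition used: TGI = concentration required for complete inhibition of growth.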

Tests used:
Experiment in all cases: NCI-60 cell line screen, 48 h
A498 renal = system: A498 renal
A549 NSCLC = system: A549 NSCLC
ACHN renal = system: ACHN renal
BT-549 breast = system: BT-549 breast
CAKI-1 renal = system: CAKI-1 renal
COLO 205 colon = system: COLO 205 colon
DU-145 prostate = system: DU-145 prostate
EKVX NSCLC = system: EKVX NSCLC
HCC-2998 colon = system: HCC-2998 colon
HCT-116 colon = system: HCT-116 colon
HCT-15 colon = system: HCT-15 colon
HL-60(TB) leukemia = system: HL-60(TB) leukemia
HOP-62 NSCLC = system: HOP-62 NSCLC
HOP-92 NSCLC = system: HOP-92 NSCLC
HS 578T breast = system: HS 578T breast
HT29 colon = system: HT29 colon
IGROV1 ovarian = system: IGROV1 ovarian
K-562 leukemia = system: K-562 leukemia
KM12 colon = system: KM12 colon
LOX IMVI melanoma = system: LOX IMVI melanoma
M14 melanoma = system: M14 melanoma
MALME-3M melanoma = system: MALME-3M melanoma
MDA-MB-231 breast = system: MDA-MB-231 breast
MDA-MB-435 = system: MDA-MB-435
MOLT-4 leukemia = system: MOLT-4 leukemia
NCI-H226 lung = system: NCI-H226 lung
NCI-H23 lung = system: NCI-H23 lung
NCI-H460 lung = system: NCI-H460 lung
NCI-H522 lung = system: NCI-H522 lung
NCI/ADR-RES ovarian = system: NCI/ADR-RES ovarian
OVCAR-3 ovarian = system: OVCAR-3 ovarian
OVCAR-4 ovarian = system: OVCAR-4 ovarian
OVCAR-5 ovarian = system: OVCAR-5 ovarian
OVCAR-8 ovarian = system: OVCAR-8 ovarian
PC-3 prostate = system: PC-3 prostate
RPMI-8226 leukemia = system: RPMI-8226 leukemia
RXF 393 renal = system: RXF 393 renal
SF-268 CNS = system: SF-268 CNS
SF-295 CNS = system: SF-295 CNS
SF-539 CNS = system: SF-539 CNS
SK-MEL-2 melanoma = system: SK-MEL-2 melanoma
SK-MEL-28 melanoma = system: SK-MEL-28 melanoma
SK-MEL-5 melanoma = system: SK-MEL-5 melanoma
SK-OV-3 ovarian = system: SK-OV-3 ovarian
SN12C renal = system: SN12C renal
SNB-19 CNS = system: SNB-19 CNS
SW-620 colon = system: SW-620 colon
T-47D breast = system: T-47D breast
TK-10 renal = system: TK-10 renal
U251 CNS = system: U251 CNS
UACC-257 melanoma = system: UACC-257 melanoma
UACC-62 melanoma = system: UACC-62 melanoma
UO-31 renal = system: UO-31 renal

SMILES: Cc1cc(N/N=C/c2nc(-c3ccc(Cl)cc3)oc2C)c2cc(Br)ccc2n1
- GI50 (A498 renal): 10.4 µM
- TGI (A498 renal): 26.5 µM
- GI50 (A549 NSCLC): 1.77 µM
- TGI (A549 NSCLC): 3.71 µM
- GI50 (ACHN renal): 2.25 µM
- TGI (ACHN renal): 5.01 µM
- GI50 (BT-549 breast): 6.91 µM
- TGI (BT-549 breast): 19.9 µM
- GI50 (CAKI-1 renal): 2.04 µM
- TGI (CAKI-1 renal): 4.71 µM
- GI50 (COLO 205 colon): 2.86 µM
- TGI (COLO 205 colon): 10.6 µM
- GI50 (DU-145 prostate): 2.66 µM
- TGI (DU-145 prostate): 7.67 µM
- GI50 (EKVX NSCLC): 14.4 µM
- TGI (EKVX NSCLC): 28.1 µM
- GI50 (HCC-2998 colon): 3.58 µM
- TGI (HCC-2998 colon): 12.5 µM
- GI50 (HCT-116 colon): 2 µM
- TGI (HCT-116 colon): 4.04 µM
- GI50 (HCT-15 colon): 1.79 µM
- TGI (HCT-15 colon): 4.42 µM
- GI50 (HL-60(TB) leukemia): 2.2 µM
- TGI (HL-60(TB) leukemia): 5.44 µM
- GI50 (HOP-62 NSCLC): 1.87 µM
- TGI (HOP-62 NSCLC): 3.94 µM
- GI50 (HOP-92 NSCLC): 3.24 µM
- TGI (HOP-92 NSCLC): 16.4 µM
- GI50 (HS 578T breast): 4.33 µM
- TGI (HS 578T breast): 28.3 µM
- GI50 (HT29 colon): 2.31 µM
- TGI (HT29 colon): 5.99 µM
- GI50 (IGROV1 ovarian): 3.14 µM
- TGI (IGROV1 ovarian): 16.7 µM
- GI50 (K-562 leukemia): 1.1 µM
- TGI (K-562 leukemia): 3.61 µM
- GI50 (KM12 colon): 2.21 µM
- TGI (KM12 colon): 5.43 µM
- GI50 (LOX IMVI melanoma): 1.93 µM
- TGI (LOX IMVI melanoma): 3.73 µM
- GI50 (M14 melanoma): 2.02 µM
- TGI (M14 melanoma): 4.55 µM
- GI50 (MALME-3M melanoma): 1.91 µM
- TGI (MALME-3M melanoma): 4.23 µM
- GI50 (MDA-MB-231 breast): 3.43 µM
- TGI (MDA-MB-231 breast): 12 µM
- GI50 (MDA-MB-435): 1.91 µM
- TGI (MDA-MB-435): 3.94 µM
- GI50 (MOLT-4 leukemia): 2.66 µM
- TGI (MOLT-4 leukemia): 13.5 µM
- GI50 (NCI-H226 lung): 17.4 µM
- TGI (NCI-H226 lung): 50.4 µM
- GI50 (NCI-H23 lung): 6 µM
- TGI (NCI-H23 lung): 23.6 µM
- GI50 (NCI-H460 lung): 1.88 µM
- TGI (NCI-H460 lung): 3.67 µM
- GI50 (NCI-H522 lung): 2.02 µM
- TGI (NCI-H522 lung): 4.51 µM
- GI50 (NCI/ADR-RES ovarian): 2.17 µM
- TGI (NCI/ADR-RES ovarian): 4.94 µM
- GI50 (OVCAR-3 ovarian): 1.96 µM
- TGI (OVCAR-3 ovarian): 3.89 µM
- GI50 (OVCAR-4 ovarian): 1.87 µM
- TGI (OVCAR-4 ovarian): 3.69 µM
- GI50 (OVCAR-5 ovarian): 10.1 µM
- TGI (OVCAR-5 ovarian): 21.9 µM
- GI50 (OVCAR-8 ovarian): 2.41 µM
- TGI (OVCAR-8 ovarian): 5.97 µM
- GI50 (PC-3 prostate): 2.31 µM
- TGI (PC-3 prostate): 6.07 µM
- GI50 (RPMI-8226 leukemia): 1.95 µM
- TGI (RPMI-8226 leukemia): 4.81 µM
- GI50 (RXF 393 renal): 4.1 µM
- TGI (RXF 393 renal): 17.2 µM
- GI50 (SF-268 CNS): 3.7 µM
- TGI (SF-268 CNS): 28.2 µM
- GI50 (SF-295 CNS): 12.4 µM
- TGI (SF-295 CNS): 26.6 µM
- GI50 (SF-539 CNS): 1.9 µM
- TGI (SF-539 CNS): 3.69 µM
- GI50 (SK-MEL-2 melanoma): 17.5 µM
- TGI (SK-MEL-2 melanoma): 32.2 µM
- GI50 (SK-MEL-28 melanoma): 2.07 µM
- TGI (SK-MEL-28 melanoma): 4.49 µM
- GI50 (SK-MEL-5 melanoma): 11.7 µM
- TGI (SK-MEL-5 melanoma): 23.9 µM
- GI50 (SK-OV-3 ovarian): 5.84 µM
- TGI (SK-OV-3 ovarian): 18.3 µM
- GI50 (SN12C renal): 2.05 µM
- TGI (SN12C renal): 4.38 µM
- GI50 (SNB-19 CNS): 4.13 µM
- TGI (SNB-19 CNS): 17.7 µM
- GI50 (SW-620 colon): 1.87 µM
- TGI (SW-620 colon): 4.23 µM
- GI50 (T-47D breast): 1.79 µM
- TGI (T-47D breast): 3.51 µM
- GI50 (TK-10 renal): 1.8 µM
- TGI (TK-10 renal): 3.49 µM
- GI50 (U251 CNS): 1.73 µM
- TGI (U251 CNS): 3.29 µM
- GI50 (UACC-257 melanoma): 3.49 µM
- TGI (UACC-257 melanoma): 15 µM
- GI50 (UACC-62 melanoma): 2.02 µM
- TGI (UACC-62 melanoma): 4.43 µM
- GI50 (UO-31 renal): 13.9 µM
- TGI (UO-31 renal): 26.8 µM

SMILES: CCCCc1n(Cc2ccc3ccccc3c2)c2ccccc2[n+]1Cc1ccc2ccccc2c1
- GI50 (ACHN renal): 1.4 µM
- TGI (ACHN renal): 2.82 µM
- GI50 (OVCAR-5 ovarian): 0.521 µM
- TGI (OVCAR-5 ovarian): 1.9 µM
- GI50 (UACC-257 melanoma): 0.925 µM
- TGI (UACC-257 melanoma): 2.23 µM
